Earlier results in patent US11723868B2, “Biodegradable polymer microsphere compositions for parenteral administration” (Adare Pharmaceuticals USA, Inc., priority 2016, dated 2023).

Assays:
[1] = properties of drugs used, Table B
[2] = properties of drugs used, Table B; remark: listed apart in the source

Water Solubility [1] [µg/mL]	logP [2]	SMILES
<3	4.67	COc1cc2c(cc1Cc1cccc(Cl)c1F)c(=O)c(C(=O)O)cn2[C@H](CO)C(C)C [Drug A, Elvitegravir]
<7	3.40	C#C[C@]1(O)CC[C@H]2[C@@H]3CCC4=CC(=O)CC[C@@H]4[C@H]3C(=C)C[C@@]21CC [Drug C, Etonogestrel]

SMILES	Water Solubility [1] [µg/mL]	logP [2]
C[C@@H](O)[C@@H]1NC(=O)[C@H](CCCCN)NC(=O)[C@@H](Cc2c[nH]c3ccccc23)NC(=O)[C@H](Cc2ccccc2)NC(=O)[C@@H](NC(=O)[C@H](N)Cc2ccccc2)CSSC[C@@H](C(=O)N[C@H](CO)[C@@H](C)O)NC1=O [Drug D, Octreotide]	>10000	
